In the NIST ThermoML archive (doi:10.1021/je7003758):

Assay: xn = mol fraction of the nth substance listed
Conditions: 298.15 K, Liquid

CCCCCCCl [1-chlorohexane] + CN1CCCC1=O
mass density [kg/m3]
Conditions	x2 = 0.1003	x2 = 0.1988	x2 = 0.305	x2 = 0.4005	x2 = 0.5007	x2 = 0.5974	x2 = 0.7016	x2 = 0.8002	x2 = 0.8995
100 kPa	884.9	897	911	924.2	938.9	954.1	971.5	988.7	1007.4
500 kPa	885.2	897.3	911.2	924.5	939.2	954.4	971.7	988.9	1007.6
1000 kPa	885.5	897.6	911.6	924.9	939.5	954.6	972.1	989.2	1007.9
1500 kPa	886	898.1	912	925.3	939.9	955	972.4	989.5	1008.2
1900 kPa	–	–	912.3	–	–	–	–	–	–
2000 kPa	886.4	898.4	–	925.6	940.2	955.3	972.7	989.8	1008.4
2500 kPa	886.8	898.9	912.8	926	940.6	955.7	973	990.1	1008.7
3000 kPa	887.2	899.2	913.2	926.4	941	956	973.4	990.4	1009
3500 kPa	887.7	899.6	913.6	926.8	941.3	956.2	973.7	990.6	1009.3
4000 kPa	888	900	–	927.1	941.6	956.6	974	991	1009.6
4100 kPa	–	–	914	–	–	–	–	–	–
4500 kPa	888.4	900.4	914.3	–	942	956.9	974.3	991.2	1009.8
4600 kPa	–	–	–	927.5	–	–	–	–	–
4900 kPa	888.7	–	–	–	–	–	–	–	–
5000 kPa	–	900.8	914.6	927.8	942.3	957.3	974.6	991.5	1010.1
5500 kPa	889.2	901.2	915	928.2	942.7	957.6	974.8	991.8	1010.4
5900 kPa	889.6	–	–	–	–	–	–	–	–
6000 kPa	–	901.6	915.4	928.6	943	958	975.2	992.2	1010.7
6500 kPa	890.1	902	915.8	928.9	943.3	958.3	975.5	992.4	1011
7000 kPa	890.4	902.4	916.2	929.2	943.7	958.6	975.8	992.7	1011.2
7400 kPa	–	902.7	–	–	–	–	–	–	–
7500 kPa	890.8	–	916.6	929.6	944	958.9	976.1	993.1	1011.5
8000 kPa	891.2	903.1	917	929.9	944.3	959.2	976.4	993.3	1011.8
8400 kPa	891.6	–	917.2	–	–	–	–	–	–
8500 kPa	–	–	–	930.3	944.7	959.5	976.7	993.6	1012
8600 kPa	–	903.6	–	–	–	–	–	–	–
8900 kPa	892	–	–	–	945	959.8	–	–	–
9000 kPa	–	903.8	917.7	930.7	–	–	977	993.9	1012.3
9400 kPa	–	–	–	930.9	–	–	–	–	–
9500 kPa	892.4	904.2	918.1	–	945.3	960.1	977.3	994.2	1012.6
9900 kPa	–	–	–	–	–	–	977.7	–	–
10000 kPa	892.9	904.7	918.6	931.4	945.7	960.5	–	994.5	1012.9
10500 kPa	893.2	905.1	918.8	931.7	946	960.8	978	994.8	1013.2
11000 kPa	893.5	905.4	919.2	932.1	946.4	961.1	978.3	995.1	1013.5
11400 kPa	893.9	–	–	–	–	961.4	–	–	–
11500 kPa	–	905.8	919.6	932.4	946.8	–	978.6	995.4	1013.8
11900 kPa	–	–	–	–	947	–	978.9	–	–
12000 kPa	894.3	906.2	919.9	932.8	–	961.8	–	995.7	1014
12400 kPa	–	906.5	–	–	–	–	–	995.9	1014.2
12500 kPa	894.7	–	920.2	933.1	947.3	962.2	–	–	–
12600 kPa	–	–	–	–	–	–	979.2	–	–
12900 kPa	–	–	–	–	–	–	979.4	–	–
13000 kPa	895.1	907.1	920.6	933.4	947.7	962.4	–	996.3	1014.5
13400 kPa	–	907.3	–	–	948	–	979.7	996.5	–
13500 kPa	895.5	–	921	933.8	–	962.6	–	–	1014.8
13900 kPa	–	–	–	–	948.3	–	–	–	–
14000 kPa	895.9	907.7	921.3	934.1	–	963.1	980.1	996.8	1015.1
14400 kPa	–	–	921.6	934.4	–	–	–	–	–
14500 kPa	896.3	908	–	–	948.6	963.4	980.3	997.1	1015.4
15000 kPa	896.6	908.4	922	934.8	949	963.7	980.7	997.4	1015.6
15400 kPa	896.9	–	–	–	–	–	–	–	–
15500 kPa	–	908.7	922.3	935.1	949.3	964	981	997.6	1015.8
15900 kPa	–	–	–	–	–	964.2	–	–	–
16000 kPa	897.4	909	922.7	935.4	949.6	–	981.3	–	1016.1
16100 kPa	–	–	–	–	–	–	–	998	–
16500 kPa	897.7	909.4	923	935.7	949.9	964.6	981.5	998.2	1016.4
16900 kPa	–	909.7	–	–	–	964.8	–	–	1016.6
17000 kPa	898	–	923.4	936	950.2	–	981.8	998.4	–
17400 kPa	–	–	–	–	950.5	–	982	–	–
17500 kPa	898.4	910.1	923.6	–	–	965.1	–	998.8	1016.9
17600 kPa	–	–	–	936.5	–	–	–	–	–
18000 kPa	898.8	910.5	924	936.7	950.8	965.4	982.3	999	1017.1
18400 kPa	–	–	–	937	951.1	–	–	–	–
18500 kPa	899.1	910.9	924.3	–	–	965.7	982.7	999.2	–
18700 kPa	–	–	–	–	–	–	–	–	1017.5
19000 kPa	899.5	911.3	924.7	937.4	951.5	966	983	999.6	1017.8
19500 kPa	899.8	911.6	925	937.8	951.8	966.3	983.3	999.8	1017.9
20000 kPa	900.3	912	925.4	938.2	952.2	966.7	983.8	1000.2	1018.3
